In PubChem BioAssay AID328 (DTP/NCI, 2004):
Several values for one entry are separate records, joined by “and”; a condition that tells them apart may be missing. Equal entries are not always repeated. Inconclusive results and toxic doses are left out.

System: BDF1 mice, P388 leukemia ip, median survival T/C
Assay: NCI In Vivo Anticancer Drug Screen. Data for tumor model P388 Leukemia (intraperitoneal) in B6D2F1 (BDF1) mice
Details: endpoint: median survival time, higher = longer survival
In short: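 Reported as T/C, where T is the survival measurement in dosed animals and C the same measurement in vehicle controls.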

[1] = dose: 50.0 mg/kg/injection, schedule: Q01DX009 (ip), vehicle: saline
[2] = dose: 100.0 mg/kg/injection, schedule: Q01DX009 (ip), vehicle: saline
[3] = dose: 100.0 mg/kg/injection, schedule: Q04DX003 (ip), vehicle: saline with Tween-80
[4] = dose: 200.0 mg/kg/injection, schedule: Q04DX003 (ip), vehicle: saline
[5] = dose: 400.0 mg/kg/injection, schedule: Q01DX001 (ip), vehicle: saline with Tween-80

`Cn1nnc(CC(=O)O)n1` was tested, and the T/C [1] was 110 % of control, the T/C [2] was 101 % of control and the T/C (dose: 200.0 mg/kg/injection, schedule: Q01DX009 (ip), vehicle: saline) was 99 % of control.
For `COc1cc(Br)c(/C=C/[N+](=O)[O-])cc1OC`, the T/C (dose: 12.5 mg/kg/injection, schedule: Q04DX003 (ip), vehicle: saline with Tween-80) was 105 % of control, the T/C (dose: 25.0 mg/kg/injection, schedule: Q04DX003 (ip), vehicle: saline with Tween-80) was 105 % of control and 107 % of control and the T/C (dose: 50.0 mg/kg/injection, schedule: Q04DX003 (ip), vehicle: saline with Tween-80) was 113 % of control. The T/C [3] was 123 % of control.
`C[n+]1ccc(Nc2ccc(NC(=O)c3ccc(Nc4cc[n+](C)c5ccc([N+](=O)[O-])cc45)cc3[N+](=O)[O-])cc2)cc1` was tested, and the T/C (dose: 25.0 mg/kg/injection, schedule: Q04DX003 (ip), vehicle: saline) was 105 % of control and 116 % of control and the T/C [4] was 158 % of control and 203 % of control.
`CCN(CC)CCNc1ccc(COC(=O)NC)c2sc3ccccc3c(=O)c12` was tested, and the T/C (dose: 6.25 mg/kg/injection, schedule: Q01DX009 (ip), vehicle: saline with Tween-80) was 166 % of control.
With `O=C(/C=C/c1ccccc1Cl)NCC(O)CO` (stereo unspecified) the T/C (dose: 50.0 mg/kg/injection, schedule: Q01DX009 (ip), vehicle: saline with Tween-80) was 100 % of control, the T/C (dose: 100.0 mg/kg/injection, schedule: Q01DX009 (ip), vehicle: saline with Tween-80) was 100 % of control and the T/C (dose: 200.0 mg/kg/injection, schedule: Q01DX009 (ip), vehicle: saline with Tween-80) was 95 % of control. For the same molecule, the T/C (dose: 400.0 mg/kg/injection, schedule: Q01DX009 (ip), vehicle: other) was 91 % of control and the T/C (dose: 400.0 mg/kg/injection, schedule: Q01DX009 (ip), vehicle: saline with Tween-80) was 90 % of control.
`COc1cc[n+]([O-])cc1` was tested, and the T/C (dose: 100.0 mg/kg/injection, schedule: Q04DX003 (ip), vehicle: saline) was 95 % of control, the T/C [4] was 95 % of control and the T/C (dose: 400.0 mg/kg/injection, schedule: Q04DX003 (ip), vehicle: saline) was 100 % of control.
In the case of `COC(=O)Cc1[nH]ccc1C(=O)OC`, the T/C (dose: 100.0 mg/kg/injection, schedule: Q01DX001 (ip), vehicle: saline with Tween-80) is reported as 103 % of control, the T/C (dose: 200.0 mg/kg/injection, schedule: Q01DX001 (ip), vehicle: saline with Tween-80) is reported as 109 % of control and the T/C [5] is reported as 120 % of control.
For `Cc1cc(C)c(-n2c(-c3ccc(Cl)cc3)nnc2-c2ccc(Br)cc2)c(C)c1`, the T/C (dose: 100.0 mg/kg/injection, schedule: Q04DX003 (ip), vehicle: Klucel (hydroxypropylcellulose) (HPC)) was 104 % of control, the T/C (dose: 200.0 mg/kg/injection, schedule: Q04DX003 (ip), vehicle: Klucel (hydroxypropylcellulose) (HPC)) was 100 % of control and the T/C (dose: 400.0 mg/kg/injection, schedule: Q04DX003 (ip), vehicle: Klucel (hydroxypropylcellulose) (HPC)) was 90 % of control.
`CCc1ccc(C2=C(O)C(=O)C(c3ccccc3)=C(O)C2=O)cc1` was tested, and the T/C (dose: 12.5 mg/kg/injection, schedule: Q01DX010 (ip), vehicle: saline) was 109 % of control and the T/C (dose: 50.0 mg/kg/injection, schedule: Q01DX010 (ip), vehicle: saline) was 159 % of control.
For `CS(=O)(=O)OC[C@@H](O)[C@@H](O)COS(C)(=O)=O`, the T/C [1] was 116 % of control and the T/C [2] was 107 % of control.
In the case of `COc1ccc(NC(=O)CCC(=O)O)cc1`, the T/C [3] is reported as 92 % of control, the T/C (dose: 200.0 mg/kg/injection, schedule: Q04DX003 (ip), vehicle: saline with Tween-80) is reported as 88 % of control and the T/C (dose: 400.0 mg/kg/injection, schedule: Q04DX003 (ip), vehicle: saline with Tween-80) is reported as 88 % of control.
`CC(C)(C)c1cc(CO)c(Sc2c(CO)cc(C(C)(C)C)cc2CO)c(CO)c1` was tested, and the T/C [5] was 90 % of control.
For `CC1(C)CCC(=O)O1`, the T/C (dose: 25.0 mg/kg/injection, schedule: Q01DX009 (ip), vehicle: water) was 104 % of control, the T/C (dose: 50.0 mg/kg/injection, schedule: Q01DX009 (ip), vehicle: water) was 104 % of control and the T/C (dose: 100.0 mg/kg/injection, schedule: Q01DX009 (ip), vehicle: water) was 91 % of control. For the same molecule, the T/C (dose: 200.0 mg/kg/injection, schedule: Q01DX009 (ip), vehicle: water) was 103 % of control and the T/C (dose: 400.0 mg/kg/injection, schedule: Q01DX009 (ip), vehicle: water) was 91 % of control.
With `O=C(NC1=NN(c2ccccc2)C(=O)C1)Nc1ccccc1` the T/C (dose: 87.5 mg/kg/injection, schedule: Q01DX009 (ip), vehicle: saline with Tween-80) was 110 % of control and the T/C (dose: 175.0 mg/kg/injection, schedule: Q01DX009 (ip), vehicle: saline with Tween-80) was 103 % of control.
With `CC(C)Cn1cnc2c(SCc3ccc(Cl)cc3Cl)nc(N)nc21` the T/C (dose: 66.0 mg/kg/injection, schedule: Q01DX009 (ip), vehicle: gum acacia) was 112 % of control, the T/C (dose: 100.0 mg/kg/injection, schedule: Q01DX009 (ip), vehicle: gum acacia) was 95 % of control and the T/C (dose: 100.0 mg/kg/injection, schedule: Q04DX003 (ip), vehicle: gum acacia) was 88 % of control. For the same molecule, the T/C (dose: 150.0 mg/kg/injection, schedule: Q01DX009 (ip), vehicle: gum acacia) was 100 % of control, the T/C (dose: 200.0 mg/kg/injection, schedule: Q01DX009 (ip), vehicle: gum acacia) was 104 % of control and the T/C (dose: 200.0 mg/kg/injection, schedule: Q04DX003 (ip), vehicle: gum acacia) was 88 % of control. For the same molecule, the T/C (dose: 400.0 mg/kg/injection, schedule: Q01DX009 (ip), vehicle: gum acacia) was 120 % of control.
